One data set concerns HEK293. The experiment in a line: Cytotoxicity against AC1 expressed HEK293 cells by CellTiter-Glo 2.0 assay relative to control. The data set is classed as toxicity, cell-based. Also noted: concentration or dose not given beside the values. To be noted: human.
The next data set relates to HL-60. The experiment in a line: Cytotoxicity against human HL-60 cells by CellTiter-Glo 2.0 assay. It counts as functional, cell-based.
A short description of data set [1]: Inhibition of Bordetella pertussis Adenylate cyclase toxin in mouse J774.A1 cells preincubated for 5 hrs followed by ACT addition and measured after 30 mins by CatchPointcAMP immunoassay method. It counts as cell-based.
A further data set concerns CCRF-CEM. The data set is described as follows: Cytotoxicity against human CCRF-CEM cells by CellTiter-Glo 2.0 assay. It counts as functional, cell-based.
For the next data set, the system named is HeLa S3. The experiment in a line: Cytotoxicity against human HeLa S3 cells by CellTiter-Glo 2.0 assay. It counts as functional, cell-based.
Data set [2] can be described thus: Cytotoxicity against mouse J774.A1 cells assessed as cell viability at 10 uM incubated for 5 hrs by Cell Titer-Glo Luminescent Cell Viability assay relative to control. The data set is classed as toxicity, cell-based. The settings on record: read-out: Activity.
Another data set concerns HepG2. The data set is described as follows: Cytotoxicity against human HepG2 cells by CellTiter-Glo 2.0 assay. The data set is classed as functional, cell-based.
The test system of another data set is NHDF. The experiment in a line: Cytotoxicity against human NHDF cells by CellTiter-Glo 2.0 assay. The data set is classed as toxicity, cell-based.

Some results are limits rather than exact numbers.

Consider `CC(C)OC(=O)[C@H](Cc1ccccc1)NP(=O)(COCCn1cc(-c2cccc(C#N)c2)c2c(N)ncnc21)N[C@@H](Cc1ccccc1)C(=O)OC(C)C`, for which, in the data set with HEK293, the Activity was found to be 29%. Also, the IC50 was 3.22 µM with HL-60; 1.42 µM in data set [1]; 3.85 µM in the data set on CCRF-CEM; 10.1 µM with HeLa S3; 9.43 µM in the data set with HepG2; greater than 10 µM in the data set with NHDF. Moreover, the viability at 5 h, 10 µM in data set [2] was 111%.
On to `CC(C)OC(=O)[C@H](Cc1ccccc1)NP(=O)(COCCn1cc(-c2ccc([N+](=O)[O-])cc2)c2c(N)ncnc21)N[C@@H](Cc1ccccc1)C(=O)OC(C)C`, for which the Activity in the data set on HEK293 is 97%. Moreover, the IC50 was 4.58 µM with HL-60; 1.26 µM in data set [1]; 4.08 µM in the data set with CCRF-CEM; 2.95 µM in the data set with HeLa S3; greater than 10 µM in the data set with HepG2; greater than 10 µM in the data set on NHDF. In addition, in data set [2], the viability at 5 h, 10 µM came out at 113%.
With `Cc1cn(CCOCP(=O)(N[C@@H](Cc2ccccc2)C(=O)OC(C)C)N[C@@H](Cc2ccccc2)C(=O)OC(C)C)c2ncnc(N)c12`, the Activity with HEK293 was determined as 93%. Further, the IC50 was 7.33 µM in the data set with HL-60; 1.47 µM in data set [1]; greater than 10 µM in the data set on CCRF-CEM; greater than 10 µM with HeLa S3; 9.73 µM with HepG2; greater than 10 µM in the data set with NHDF. In data set [2], the viability at 5 h, 10 µM came out at 112%.
Consider `CC(C)OC(=O)[C@H](Cc1ccccc1)NP(=O)(COCCn1cc(-c2cncnc2)c2c(N)ncnc21)N[C@@H](Cc1ccccc1)C(=O)OC(C)C`, for which the Activity in the data set on HEK293 worked out at 102%. Further, the IC50 (with HL-60; in data set [1]; in the data set with CCRF-CEM; with HeLa S3; with HepG2; in the data set on NHDF) was greater than 10 µM in each case. For the same molecule, the viability at 5 h, 10 µM in data set [2] is 128%.
`CC(C)OC(=O)[C@H](Cc1ccccc1)NP(=O)(COCCn1cc(-c2cccc(NS(C)(=O)=O)c2)c2c(N)ncnc21)N[C@@H](Cc1ccccc1)C(=O)OC(C)C`: in the data set on HEK293, the Activity is 98%. Besides, the IC50 is 7.08 µM in the data set with HL-60; 2.95 µM in data set [1]; 6.92 µM in the data set on CCRF-CEM; 15.2 µM with HeLa S3; greater than 10 µM in the data set with HepG2; greater than 10 µM in the data set with NHDF. Moreover, in data set [2], the viability at 5 h, 10 µM came out at 87%.
As for `CC(C)OC(=O)[C@H](Cc1ccccc1)NP(=O)(COCCn1cc(-c2cccs2)c2c(N)ncnc21)N[C@@H](Cc1ccccc1)C(=O)OC(C)C`, the Activity with HEK293 is recorded as -9%. The IC50 stood at 0.56 µM with HL-60; 0.79 µM in the data set on CCRF-CEM; 1.09 µM with HeLa S3; 1.02 µM in the data set with HepG2; 0.4 µM in the data set on NHDF. In addition, the viability at 5 h, 10 µM in data set [2] came out at 36%.
As for `CC(C)OC(=O)[C@H](Cc1ccccc1)NP(=O)(COCCn1cc(-c2cccc(C(=O)O)c2)c2c(N)ncnc21)N[C@@H](Cc1ccccc1)C(=O)OC(C)C`, the Activity in the data set on HEK293 was determined as 115%. In addition, the IC50 was greater than 10 µM in the data set on HL-60; 6.09 µM in data set [1]; greater than 10 µM in the data set with CCRF-CEM; greater than 10 µM with HeLa S3; greater than 10 µM in the data set on HepG2; greater than 10 µM with NHDF. Besides, the viability at 5 h, 10 µM in data set [2] was 104%.
On to `CCc1cn(CCOCP(=O)(N[C@@H](Cc2ccccc2)C(=O)OC(C)C)N[C@@H](Cc2ccccc2)C(=O)OC(C)C)c2ncnc(N)c12`, for which the Activity with HEK293 is reported as 90%. The IC50 with HL-60 is 7.89 µM; in data set [1] it was greater than 10 µM; in the data set with CCRF-CEM, greater than 10 µM; with HeLa S3 it was greater than 10 µM; with HepG2, greater than 10 µM; in the data set with NHDF it was greater than 10 µM. The viability at 5 h, 10 µM in data set [2] amounted to 125%.
As for `C#Cc1cn(CCOCP(=O)(N[C@@H](Cc2ccccc2)C(=O)OC(C)C)N[C@@H](Cc2ccccc2)C(=O)OC(C)C)c2ncnc(N)c12`, the Activity with HEK293 came to 85%. In addition, the IC50 with HL-60 was 6.46 µM; in data set [1] it was greater than 10 µM; with CCRF-CEM, 5.77 µM; with HeLa S3 it was greater than 10 µM; in the data set with HepG2, 7.9 µM; in the data set on NHDF, greater than 10 µM. The viability at 5 h, 10 µM in data set [2] stood at 129%.
Consider `COc1ccccc1-c1cn(CCOCP(=O)(N[C@@H](Cc2ccccc2)C(=O)OC(C)C)N[C@@H](Cc2ccccc2)C(=O)OC(C)C)c2ncnc(N)c12`, for which the Activity in the data set on HEK293 was -12%. Also, the IC50 with HL-60 is 6.61 µM; in data set [1] it was 2.17 µM; with CCRF-CEM it was 6.2 µM; in the data set with HeLa S3, 3.65 µM; with HepG2, 4.57 µM; in the data set with NHDF, greater than 10 µM. Moreover, in data set [2], the viability at 5 h, 10 µM was determined as 112%.
For `C=C(C)c1cn(CCOCP(=O)(N[C@@H](Cc2ccccc2)C(=O)OC(C)C)N[C@@H](Cc2ccccc2)C(=O)OC(C)C)c2ncnc(N)c12`, the Activity in the data set on HEK293 worked out at 31%. Moreover, the IC50 in the data set with HL-60 was 4.62 µM; in data set [1] it was greater than 10 µM; with CCRF-CEM, 5.64 µM; in the data set with HeLa S3, greater than 10 µM; with HepG2, 8.73 µM; with NHDF, greater than 10 µM. The viability at 5 h, 10 µM in data set [2] stood at 81%.
Take `COc1ccc(-c2cn(CCOCP(=O)(N[C@@H](Cc3ccccc3)C(=O)OC(C)C)N[C@@H](Cc3ccccc3)C(=O)OC(C)C)c3ncnc(N)c23)cc1`: the Activity in the data set on HEK293 was -17%. The IC50 was 6.52 µM in the data set on HL-60; 1.49 µM in data set [1]; 5.81 µM in the data set with CCRF-CEM; greater than 10 µM in the data set on HepG2; greater than 10 µM with NHDF. Also, the viability at 5 h, 10 µM in data set [2] worked out at 112%.
As to `CC(C)OC(=O)[C@H](Cc1ccccc1)NP(=O)(COCCn1cc(-c2cccc(-c3nn[nH]n3)c2)c2c(N)ncnc21)N[C@@H](Cc1ccccc1)C(=O)OC(C)C`, in the data set on HEK293, the Activity amounted to 110%. Moreover, the 50% inhibitory concentration (IC50) (in the data set on HL-60; in data set [1]; in the data set on CCRF-CEM; in the data set with HeLa S3; with HepG2; with NHDF) was greater than 10 µM each time. The viability at 5 h, 10 µM in data set [2] stood at 94%.
In the case of `COc1cccc(-c2cn(CCOCP(=O)(N[C@@H](Cc3ccccc3)C(=O)OC(C)C)N[C@@H](Cc3ccccc3)C(=O)OC(C)C)c3ncnc(N)c23)c1`, in the data set with HEK293, the Activity is on record as -14%. Moreover, the IC50 with HL-60 was 5.47 µM; in data set [1], 4.8 µM; with CCRF-CEM, 4.85 µM; in the data set on HeLa S3, 9.16 µM; with HepG2 it was 13.9 µM; in the data set on NHDF, greater than 10 µM. The viability at 5 h, 10 µM in data set [2] was 94%.
With `CC(C)OC(=O)[C@H](Cc1ccccc1)NP(=O)(COCCn1cc(-c2cccc(S(N)(=O)=O)c2)c2c(N)ncnc21)N[C@@H](Cc1ccccc1)C(=O)OC(C)C`, in the data set with HEK293, the Activity was determined as 110%. Also, the IC50 is 4.8 µM in the data set with HL-60; 3.41 µM in data set [1]; 5.56 µM in the data set with CCRF-CEM; greater than 10 µM with HeLa S3; greater than 10 µM in the data set with HepG2; greater than 10 µM in the data set with NHDF. Moreover, the viability at 5 h, 10 µM in data set [2] is 114%.
Consider `CCOC(=O)[C@H](C)NP(=O)(COCCn1cc(-c2ccc(OC)cc2)c2c(N)ncnc21)Oc1ccccc1` (stereo partly drawn), for which the IC50 in the data set on HL-60 was greater than 10 µM; in data set [1], 5.41 µM; in the data set on CCRF-CEM, greater than 10 µM; in the data set with HeLa S3, greater than 10 µM; with HepG2, greater than 10 µM; with NHDF, greater than 10 µM. The viability at 5 h, 10 µM in data set [2] is 104%.
Regarding `COc1ccc(-c2cn(CCOCP(=O)(OCOC(=O)C(C)(C)C)OCOC(=O)C(C)(C)C)c3ncnc(N)c23)cc1`, the IC50 in the data set on HL-60 was greater than 10 µM; in data set [1], 10.2 µM; in the data set on CCRF-CEM it was greater than 10 µM; with HeLa S3, greater than 10 µM; with HepG2 it was greater than 10 µM; in the data set with NHDF it was greater than 10 µM. In addition, the viability at 5 h, 10 µM in data set [2] was 85%.
For the molecule `CC(C)OC(=O)[C@H](Cc1ccccc1)NP(=O)(COCCn1cc(-c2ccco2)c2c(N)ncnc21)N[C@@H](Cc1ccccc1)C(=O)OC(C)C`, the Activity in the data set with HEK293 is -9%. Moreover, the IC50 with HL-60 stood at 0.66 µM; in the data set with CCRF-CEM, 0.99 µM; with HeLa S3, 1.29 µM; in the data set with HepG2 it was 0.99 µM; in the data set with NHDF it was 0.35 µM. Further, in data set [2], the viability at 5 h, 10 µM was 43%.
Consider `CC(C)OC(=O)[C@H](Cc1ccccc1)NP(=O)(COCCn1cc(C#Cc2ccccc2)c2c(N)ncnc21)N[C@@H](Cc1ccccc1)C(=O)OC(C)C`, for which, in the data set on HEK293, the Activity is listed as -9%. For the same molecule, the IC50 was 4.75 µM with HL-60; greater than 10 µM in data set [1]; 4.49 µM in the data set with CCRF-CEM; 5.3 µM in the data set with HeLa S3; 7.24 µM in the data set on HepG2; greater than 10 µM in the data set on NHDF. In addition, the viability at 5 h, 10 µM in data set [2] stood at 116%.
As for `CC(C)OC(=O)[C@H](Cc1ccccc1)NP(=O)(COCCn1cc(C(C)C)c2c(N)ncnc21)N[C@@H](Cc1ccccc1)C(=O)OC(C)C`, the Activity with HEK293 amounted to 51%. Also, the IC50 in the data set with HL-60 is 7.34 µM; in data set [1] it was greater than 10 µM; in the data set on CCRF-CEM, 6.54 µM; in the data set with HeLa S3, greater than 10 µM; with HepG2, greater than 10 µM; with NHDF it was greater than 10 µM. Besides, the viability at 5 h, 10 µM in data set [2] is 121%.
Consider `CC(C)OC(=O)[C@H](Cc1ccccc1)NP(=O)(COCCn1cc(-c2ccccn2)c2c(N)ncnc21)N[C@@H](Cc1ccccc1)C(=O)OC(C)C`, for which the Activity with HEK293 was -17%. Besides, the IC50 with HL-60 is 5.18 µM; in data set [1], 1.06 µM; in the data set with CCRF-CEM, 5.77 µM; in the data set with HeLa S3, 7.86 µM; with HepG2, greater than 10 µM; in the data set with NHDF it was greater than 10 µM. In addition, the viability at 5 h, 10 µM in data set [2] stood at 104%.

The record behind these values is ChEMBL document CHEMBL5390272, “Discovery of a potent and selective human AC2 inhibitor based on 7-deazapurine analogues of adefovir” (Bioorg Med Chem, 2023).
